Patent US20020114787A1, “Tolerance to natural antibody antigens” (priority 1997, published 2002)

Tests used:
[1] = system: human natural antibodies (IgG, IgM) binding to porcine PBMC; experiment: Competitive binding assay, flow cytometry: human natural antibody binding to porcine PBMC; settings: human serum pre-incubated with competitor at 1 mg/ml
Protocol: FIG. 1 (Panels A, B, C, D) is a set of graphs which show α1,3Gal/BSA-inhibition of human natural antibody binding to pig cells. Human serum (20 μl) was preincubated with αGal/BSA (Panels A,C) or bovine thyroglobulin (Panels B,D) at concentrations of 1,000 μg/ml (b) or 0.1 μg/ml (c) prior to staining of porcine peripheral blood mononuclear cells (pPBMCs). The negative control (a) consisted of pPBMC plus an equivalent volume of galactosyl α(1, 3) galactose reactive natural antibody-depleted human serum (XNA^−) while the positive control was 20 μl human serum without competitor (d). Following incubation with the human serum, the cells were stained with either anti-human IgG (Panels A,B) or anti-human IgM (Panels C,D).
Human sera were obtained from healthy adult volunteers. Individual samples were isolated and stored at 4° C. for short periods or aliquoted and stored at −70° C. Porcine peripheral blood mononuclear cells (pPBMC) were isolated from heparinized whole blood obtained from an inbred miniature swine herd and resuspended in flow cytometric analysis staining buffer (Hank's Buffered Saline Solution (HBSS), 2.0% fetal calf serum, 0.04% sodium azide (Sigma Chemical Co., St. Louis, Mo.)) to a final concentration of 1×10^7 pPBMC/ml.
Human serum (15 μl) was pre-incubated with serially diluted αGal/BSA, bovine thyroglobulin (Sigma Chemical Co., St. Louis, Mo.) or BSA (Fisher Scientific, Pittsburgh, Pa.) at final concentrations of 1 mg/ml to 1 ng/ml for 90 minutes at 4° C. with gentle rocking. Fifty μl of pPBMC (5×10^5 cells) was incubated with 50 μl of human serum plus competitor for 90 minutes at 4° C. The positive control consisted of staining with human serum alone and the negative control was human serum depleted of natural antibodies (XNA^−). The cells were processed for all subsequent steps in the same way as for direct flow cytometric analysis (DerSimonian, H. M. et al. (1993) J. Exp. Med. 177:1623).

[2] = system: galactosyl α(1, 3) galactose-reactive natural antibodies in human serum; experiment: Competitive ELISA with αGal/BSA or bovine thyroglobulin coated plates; assay type: binding
Protocol: In order to facilitate the detection of galactosyl α(1, 3) galactose-reactive antibodies in human serum samples, an ELISA system using αGal/BSA as the antigen was used. αGal/BSA (provided by BioTransplant, Inc.) was used to coat 96 well polystyrene plates (Costar) at a concentration of 10 μg/ml in PBS overnight at 4° C. Plates coated with BSA were included to control for background reactivity to BSA. Wells were blocked for 1-2 hours at room temperature with 1% BSA in TBS (100 mM Tris-HCl, pH 7.5, 0.9% NaCl). All plates were washed three times with 0.1% Tween-20 in TBS (TBS/Tween) using a Skatron plate washer (Skatron Instruments, Inc., Sterling, Va.). Serial dilutions of human serum from a single donor were used as the standard positive controls. XNA^− (see Example 3) was used as the negative control. Samples were aliquoted in triplicate and allowed to incubate at room temperature for 1 hour. After washing three times with TBS/Tween, the plates were incubated with alkaline phosphatase conjugated mouse monoclonal anti-human IgG or IgM antibody (Sigma Chemical Co., St. Louis, Mo.) for 1-2 hours at room temperature in the dark. The plates were washed and developed with Sigma 104 alkaline phosphatase substrate tablets in carbonate buffer (0.203 g MgCl2, 2.2 g Na2CO3, 2.43 g. NaHCO3 in 1 L. water). The amount of colored product was measured at 405 nm using the SLT Lab Instruments 340 ATC ELISA reader. For competitive ELISA, bovine thyroglobulin and αGal/BSA were serially diluted ten-fold in TBS to final concentrations of 1 mg/ml to 1 ng/ml. Equal volumes of human serum and competitor were combined and incubated for 1 hour at 4° C. The competition reactions were then aliquoted to antigen coated plates and incubated for 1 hour at room temperature. The plates were washed and incubated with alkaline phosphatase conjugated mouse monoclonal anti-human IgG or IgM antibody (Sigma Chemical Co., St. Louis, Mo.) for 1 hour at room temperature. The wells were washed and developed with Sigma 104 alkaline phosphatase substrate. All samples were analyzed in triplicate.

[3] = system: natural antibody function; experiment: Pig to cynomolgus kidney transplants; assay type: in vivo; settings: 6 mg/kg/day, i.v.
Description: As is discussed herein, contacting the recipient's blood with galactosyl (α1, 3) galactose epitopes can be used to deplete the host of natural antibodies. Other methods for depleting or otherwise inactivating natural antibodies can be used with any of the methods described herein. For example, drugs which inactivate natural antibodies, e.g., deoxyspergualin (DSG) (Bristol), or anti-IgM antibodies, can be administered to the recipient of an allograft or a xenograft. One or more of, DSG (or similar drugs), anti-IgM antibodies, and hemoperfusion, can be used to inactivate recipient natural antibodies in methods of the invention.

[4] = Stability of αGal/BSA in the ELISA system in the presence of human serum; assay type: physicochemical; settings: 37° C. for up to 24 hours
Protocol: To ensure that the galactosyl α(1, 3) galactose epitope was stable under these conditions, experiments were performed to determine if there was any detectable hydrolysis of the galactosyl α(1, 3) galactose carbohydrate moiety in the presence of human serum.

Row | Compound | decrease in IgG binding to pig cells (median fluorescence intensity) [1] | reduction of IgM binding to pig cells (median fluorescence intensity) [1] | concentration necessary to block binding of αGal-reactive natural antibodies to αGal/BSA ([2]; competitive ELISA, αGal/BSA as antigen) | inhibition of binding of serum natural antibodies to αGal/BSA ([2]; pre-incubation of serum with competitor) | suppression of natural antibody function [3] | concentration that completely inhibited binding of human IgG and IgM to bovine thyroglobulin ([2]; competitive ELISA, bovine thyroglobulin as antigen) | stability (hydrolysis of the galactosyl α(1, 3) galactose moiety) in the ELISA system [4]
1 | Bovine thyroglobulin: galactosyl α(1, 3) galactose containing molecule, estimated eleven naturally occurring residues, 300 kD (Sigma) | 79% | 66% | 100-1,000 μg/ml | completely inhibited | – | – | –
2 | N=C(N)NCCCCCCC(=O)NC(O)C(=O)NCCCCNCCCN (stereo not drawn) [DSG, deoxyspergualin] | – | – | – | – | useful in suppressing natural antibody function | – | –
3 | αGal/BSA: synthetic conjugate with fifteen to thirty-nine αGal moieties per BSA molecule, 70 kD | 84% | 94% | – | – | – | 1 µg/mL | stable
